Source: paper PMC9686985, “Chimeric Peptides Derived from Bovine Lactoferricin and Buforin II: Antifungal Activity against Reference Strains and Clinical Isolates of Candida spp” (Antibiotics, 2022)
Where two headings read alike, the source gives them in different places. Positions of bridges follow the written chain, without caps; N, C: chain ends. Non-standard residues stand in square brackets, D forms with d. Residues, ends and D or L forms follow the SMILES beside them. Chains are numbered I, II in the order given. No end group written: not given here. Ahx = NCCCCCC(=O)O

Columns and labels:
Assay type in all cases: cell-based, Candida albicans
[1] = system: C. albicans ATCC SC5314
Method: (§1) Antifungal susceptibility testing was carried out using the broth microdilution (BMD) method, following the CLSI M27-A3 guidelines with slight modifications. Briefly, cells (0.5–2.5 × 10^3 CFU/mL) were incubated with peptides (200, 100, 50, 25, 12.5, and 6.25 µg/mL) at 37 °C for 48 h. MICs were visualized and densitometry (595 nm, microplate reader, Bio-Rad, ᵢMark^TM) was used to determine the lowest concentration of peptide that caused a significant decrease (MIC/2 or ≥50%) compared with the growth control (cells incubated in absence of peptide) (n = 3). In order to verify that the peptides were able to kill the yeast cells, the plates were also evaluated for minimum fungicidal concentration (MFC). Briefly, aliquots from each well from susceptibility testing assays were transferred to plates containing Sabouraud dextrose agar (SDA), which were then incubated at 37 °C for 24 h. The highest dilution with no growth on the agar plate was considered to be the MFC.

[2] = system: C. albicans 256 HUSI-PUJ; settings: for MFC: 24 h; for MIC: 48 h
Method: as §1

[3] = system: C. albicans SC5314; settings: for Time-kill result: Fungicide concentration / Time-kill result: Fungistatic concentration: after 48 h of incubation, RPMI 1640, 37 °C, Bioscreen C
Method: (§2) A time-kill kinetic assay was carried out according to the method previously described by Pfaller and coworkers with minor modifications. The peptides (C5, C6, C8, and C9) diluted in RPMI were tested at a range of concentrations: 0 (control), 0.2, 0.5, 1, and 2 times the MIC value for each strain. The isolates were subcultured on SBD, and then an inoculum was adjusted to a 0.5–2.5 × 10^3 CFU/mL in an RPMI 1640 medium. Yeast inoculum (150 uL) was added to a 100-well plate containing serial dilutions of the peptides. The plates were incubated with agitation at 37 °C in a plate reader (Bioscreen C MBR automated turbidometric analyzer, Growth Curves Ltd., Helsinki, Finland), which takes hourly absorbance readings. Moreover, fluconazole MICs were used as a control. The readings were analyzed with Bioscreen software (Growth Curves USA, Piscataway, NJ, USA) and GraphPad Prism 8.0.1 (GraphPad Soft-ware, San Diego, CA, USA). Statistical comparisons were made using an analysis of variance (two-way ANOVA) followed by a Tukey–Kramer post hoc test. P values less than 0.005 were considered significant. […] Moreover, previously determined FLC MICs (data not shown) were used as a control.

[4] = system: C. albicans 256; settings: for Time-kill result: Fungicide concentration / Time-kill result: Fungistatic concentration: after 48 h of incubation, RPMI 1640, 37 °C, Bioscreen C
Method: as §2

[5] = system: C. albicans ATCC SC5314; remark: listed apart in the source
Method: (§3) The in vitro interactions between the peptides (C6, C8, and C9) and the FLC drug were evaluated in a checkerboard assay, as previously described by Cokol et al.. Briefly, each isolate was prepared by picking colonies from an overnight culture in SBD at 37 °C and suspended in a sterile normal saline PBS buffer. The fungal inoculum was adjusted to 0.5 MacFarland and the inoculum was adjusted to 0.5–2.5 × 10^3 CFU/mL. The drug-peptide combinations were formed over a range of concentrations: 0 (control) and 0.06 to 2 times the MIC [51]. The fractional inhibitory concentration index (FICI) was calculated as follows:
(§4) FICI=CML peptide in combination/CMI peptide alone+CML FLC in combination/CMI FLC alone
(§5) The calculated FICI was reported as synergy with values FICI ≤ 0.5, additive FICI > 0.5–1, indifference FICI > 1–4, and antagonism FICI ≥ 4 [52].
(§6) A synergistic effect was considered to be when the effect of the combination exceeded the effects of the individual components. An additive effect was when the effect of the combination was equal to the sum of the effects of the individual components.

[6] = system: C. albicans 256 HUSI-PUJ
Method: as §3, §4, §5, §6

[7] = fungistatic = growth inhibition >70% for 48 h
[8] = FLC-sensitive reference strain, aliquots plated on SDA, 37 °C, 24 h, no growth
[9] = FLC-sensitive reference strain, broth microdilution CLSI M27-A3, 37 °C, 48 h, ≥50% decrease vs growth control, n = 3
[10] = FLC-resistant clinical isolate, aliquots plated on SDA, 37 °C, no growth
[11] = FLC-resistant clinical isolate, broth microdilution CLSI M27-A3, 37 °C, ≥50% decrease vs growth control, n = 3

MIC ([1]; ATCC SC5314, 48 h) [µM] | MIC ([2]; 256 HUSI-PUJ) [µM] | MIC [1, 9] [mg/L] | MIC [2, 11] [mg/L] | Compound | MFC ([1]; ATCC SC5314, 24 h) [µM] | MFC ([2]; 256 HUSI-PUJ) [µM] | MFC [1, 8] [mg/L] | MFC [2, 10] [mg/L] | other results
101 | 101 |  |  | CC(C)C[C@H](NC(=O)[C@H](CC(C)C)NC(=O)[C@H](CCCCN)NC(=O)[C@H](CCCCN)NC(=O)[C@H](CC(C)C)NC(=O)[C@H](CC(C)C)NC(=O)[C@H](CCCCN)NC(=O)CCCCCNC(=O)[C@H](CCCCN)NC(=O)[C@H](Cc1c[nH]c2ccccc12)NC(=O)[C@H](CCC(N)=O)NC(=O)[C@H](Cc1c[nH]c2ccccc12)NC(=O)[C@H](CCCCN)NC(=O)[C@@H](N)CCCCN)C(=O)N[C@@H](CCCCN)C(N)=O [C7] (H-KKWQWK[Ahx]KLLKKLLK-NH2) | > 101 | > 101 |  |  | 
37 | 37 | 100 | 100 | CC(C)C[C@H](NC(=O)[C@H](CC(C)C)NC(=O)[C@H](CCCNC(=N)N)NC(=O)CCCCCNC(=O)[C@H](CCCCNC(=O)[C@H](CCCNC(=N)N)NC(=O)[C@H](Cc1c[nH]c2ccccc12)NC(=O)[C@H](CCC(N)=O)NC(=O)[C@H](Cc1c[nH]c2ccccc12)NC(=O)[C@H](CCCNC(=N)N)NC(=O)[C@@H](N)CCCNC(=N)N)NC(=O)[C@H](CCCNC(=N)N)NC(=O)[C@H](Cc1c[nH]c2ccccc12)NC(=O)[C@H](CCC(N)=O)NC(=O)[C@H](Cc1c[nH]c2ccccc12)NC(=O)[C@H](CCCNC(=N)N)NC(=O)[C@@H](N)CCCNC(=N)N)C(=O)N[C@@H](CCCNC(=N)N)C(N)=O [C8] (I: H-RRWQWRK[Ahx]RLLR-NH2 / II: H-RRWQWR; amide I:7-II:C; N-terminus assumed) | 37 | 37 | 100 | 100 | Inhibition of growth ([3]; SC5314, 48 h): more than 90%; Time-kill result: Fungicide concentration ([3]; fungicidal = yeast kill ≥99%): 200 µg/mL; Time-kill result: Fungistatic concentration [3, 7]: 100 µg/mL; Time-kill result: Fungicide concentration ([3]; value in brackets): 73 µM; Time-kill result: Fungistatic concentration ([3]; value in brackets): 37 µM; Incubation time up to which yeast growth was completely inhibited ([3]; time-kill curve, peptide at 100 µg/mL (37 µM)): about 23 h; Inhibition of growth ([4]; 256, 48 h): more than 90%; Time-kill result: Fungicide concentration ([4]; fungicidal = yeast kill ≥99%): 200 µg/mL; Time-kill result: Fungistatic concentration [4, 7]: 100 µg/mL; Time-kill result: Fungicide concentration ([4]; value in brackets): 73 µM; Time-kill result: Fungistatic concentration ([4]; value in brackets): 37 µM; Incubation time up to which yeast growth was inhibited ([4]; time-kill curve, peptide at 100 µg/mL): ~40 h; Effect of the combination with FLC (by FICI) ([5]; checkerboard): synergistic; MICa/A: factor by which the chimera is potentiated in combination ([5]; peptide combined with FLC): 8; Effect of the combination with FLC (by FICI) ([6]; checkerboard): indifferent; MICa/A: factor by which the chimera is potentiated in combination ([6]; peptide combined with FLC): 2
> 122 | 122 | > 200 | 200 | CC(C)C[C@H](NC(=O)[C@H](CC(C)C)NC(=O)[C@@H](N)CCCNC(=N)N)C(=O)N[C@@H](CCCNC(=N)N)C(=O)NCCCCCC(=O)N[C@@H](CCCNC(=N)N)C(=O)N[C@@H](CCCNC(=N)N)C(=O)N[C@@H](Cc1c[nH]c2ccccc12)C(=O)N[C@@H](CCC(N)=O)C(=O)N[C@@H](Cc1c[nH]c2ccccc12)C(=O)N[C@@H](CCCNC(=N)N)C(N)=O [C4] (H-RLLR[Ahx]RRWQWR-NH2; N-terminus assumed) | > 122 | > 122 | > 200 | > 200 | 
131 | 66 |  |  | RRWQWRRLLR-NH2 [C1] | > 131 | > 131 |  |  | 
